Experimental data from ChEMBL document CHEMBL1147440, “Pyrazino[1,2-a]indoles as novel high-affinity and selective imidazoline I(2) receptor ligands” (Bioorg Med Chem Lett, 2004).
pIC50, pKi: −log10 of the molar value.

Tests used:
[1] = Displacement of [3H]2-BFI from imidazoline receptor I-2; set-up: species or system Rattus norvegicus
[2] = biological target: T1, Adrenergic receptor alpha-2 (Rattus norvegicus, UniProt P22086+P19328+P22909); assay: Displacement of [3H]RX-821002 from alpha-2 adrenergic receptor; assay type: protein assay
T1 sequence (P22086 whole entry): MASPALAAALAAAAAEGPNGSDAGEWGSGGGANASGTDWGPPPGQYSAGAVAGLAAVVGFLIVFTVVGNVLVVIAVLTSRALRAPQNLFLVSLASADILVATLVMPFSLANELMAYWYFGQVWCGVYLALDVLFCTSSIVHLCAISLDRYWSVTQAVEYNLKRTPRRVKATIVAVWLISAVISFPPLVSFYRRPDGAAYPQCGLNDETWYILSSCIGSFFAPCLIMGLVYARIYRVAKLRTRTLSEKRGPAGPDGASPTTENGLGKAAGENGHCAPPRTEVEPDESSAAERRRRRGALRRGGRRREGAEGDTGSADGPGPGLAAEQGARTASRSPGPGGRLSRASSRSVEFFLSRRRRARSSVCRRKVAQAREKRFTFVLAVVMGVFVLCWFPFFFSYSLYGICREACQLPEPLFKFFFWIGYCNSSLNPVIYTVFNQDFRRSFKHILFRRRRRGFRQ
T1 sequence (P19328 whole entry): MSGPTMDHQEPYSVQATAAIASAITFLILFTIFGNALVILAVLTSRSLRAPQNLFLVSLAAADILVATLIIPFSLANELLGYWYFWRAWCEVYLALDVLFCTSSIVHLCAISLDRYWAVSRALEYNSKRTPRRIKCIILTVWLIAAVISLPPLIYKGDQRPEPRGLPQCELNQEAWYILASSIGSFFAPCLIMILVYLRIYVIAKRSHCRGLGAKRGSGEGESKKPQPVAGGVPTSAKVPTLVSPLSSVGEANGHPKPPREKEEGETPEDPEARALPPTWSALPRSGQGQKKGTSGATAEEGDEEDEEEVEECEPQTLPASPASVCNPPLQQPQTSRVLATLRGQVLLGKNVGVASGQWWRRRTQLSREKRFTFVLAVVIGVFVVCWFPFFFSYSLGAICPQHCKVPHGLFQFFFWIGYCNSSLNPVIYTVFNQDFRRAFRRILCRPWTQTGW
T1 sequence (P22909 whole entry): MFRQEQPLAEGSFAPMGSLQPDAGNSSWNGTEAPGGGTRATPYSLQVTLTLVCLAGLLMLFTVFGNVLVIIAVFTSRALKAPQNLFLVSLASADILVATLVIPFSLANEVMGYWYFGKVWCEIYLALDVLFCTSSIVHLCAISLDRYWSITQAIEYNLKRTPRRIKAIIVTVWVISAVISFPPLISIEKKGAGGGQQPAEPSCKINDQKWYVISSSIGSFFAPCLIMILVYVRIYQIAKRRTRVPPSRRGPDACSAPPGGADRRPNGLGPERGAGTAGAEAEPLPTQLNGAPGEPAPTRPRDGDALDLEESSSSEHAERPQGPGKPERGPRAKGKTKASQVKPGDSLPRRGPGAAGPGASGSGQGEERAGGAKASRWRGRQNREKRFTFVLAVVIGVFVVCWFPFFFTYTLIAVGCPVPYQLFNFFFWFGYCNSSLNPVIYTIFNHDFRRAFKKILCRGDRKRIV

[3] = biological target: 5-hydroxytryptamine receptor 2A (Rattus norvegicus, UniProt P14842); assay: Binding affinity for 5-hydroxytryptamine 2A serotonin receptor
Sequence of 5-hydroxytryptamine receptor 2A (P14842 whole entry): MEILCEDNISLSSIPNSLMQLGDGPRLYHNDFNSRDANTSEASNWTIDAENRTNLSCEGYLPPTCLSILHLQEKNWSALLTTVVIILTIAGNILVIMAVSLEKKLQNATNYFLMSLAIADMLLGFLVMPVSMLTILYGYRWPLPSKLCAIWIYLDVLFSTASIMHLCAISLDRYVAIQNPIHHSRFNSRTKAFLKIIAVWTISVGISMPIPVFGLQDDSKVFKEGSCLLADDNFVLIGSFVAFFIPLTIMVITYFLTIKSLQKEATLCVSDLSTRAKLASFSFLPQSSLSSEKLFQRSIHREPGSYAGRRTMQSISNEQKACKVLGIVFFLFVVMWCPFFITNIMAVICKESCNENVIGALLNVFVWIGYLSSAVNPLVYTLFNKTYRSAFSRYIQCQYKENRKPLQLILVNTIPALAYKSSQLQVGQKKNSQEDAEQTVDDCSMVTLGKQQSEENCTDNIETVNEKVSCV

| pKi [1] | Ki [2] [nM] | pKi [3] | pIC50 [1] | SMILES | pKi [2] |
| --- | --- | --- | --- | --- | --- |
| 5.00 | 1600 | – | – | c1ccc2c3c([nH]c2c1)C1=NCCN1CC3 | – |
| 8.21 | 9550 | 5.00 | 5.08 | COc1ccc2c(c1)cc1n2CCNC1 | – |
| > 8.00 | – | – | – | c1ccc2oc(C3=NCCN3)cc2c1 | – |
| 6.60 | 4510 | – | – | COc1ccc2cc3n(c2c1)CCNC3 | – |
| 8.19 | 516 | – | – | c1ccc2c(c1)cc1n2CCNC1 | – |
| 5.17 | 13400 | – | – | c1ccc2c(c1)nc1n2CCNC1 | – |

| SMILES | pKi [1] | Ki [2] [nM] | pKi [3] | pIC50 [1] | pKi [2] |
| --- | --- | --- | --- | --- | --- |
| COc1ccc2[nH]c3c(c2c1)CCNC3 | 5.79 | – | – | – | – |
| C1=NCCc2c1[nH]c1ccccc21 | 8.14 | – | – | – | – |
| COc1ccc2[nH]c3c(c2c1)CCN=C3 | 6.32 | – | – | – | – |
| COc1ccc2c3c([nH]c2c1)C=NCC3 [CGS-19281A] | 7.74 | – | – | – | – |
| c1ccc2c3c([nH]c2c1)CNCC3 [TRYPTOLINE] | 8.03 | – | – | – | 5.80 |
